Broadly, the melting point is the temperature of the solid-liquid transition. `COC(C(=O)O)c1nn(-c2ccc(Cl)cc2)c2c1CCCC2` (stereo unspecified) gave a melting point of 185 to 186 °C.
Turning to `O=C(c1ccccc1)c1ccc(C(=O)N2Cc3ccccc3Oc3ccccc32)cc1`, the melting point was in the range of 103 to 106 °C.
In turn, `CC1OC(n2cc(F)c(NC(=O)c3ccc4c(c3)OCO4)nc2=O)C(O)C1O` (stereo unspecified) registered a melting point of 124 to 125 °C.
`C[C@@H](NCC1COc2ccccc2N1)c1ccccc1` (stereo partly specified) displayed a melting point of 91 to 92 °C.
Consider `Clc1ccc(N2CCN=C2C(Cn2cncn2)c2ccccc2)c(Cl)c1` (stereo unspecified), for which the melting point is 78 to 82 °C.
For `CCN1CC[C@@H]2CC(=O)c3cc(F)ccc3[C@@H]2C1` (relative stereo) the value was over 220 °C; for `CCCCCN1C(=O)C2(COc3cc4nc(C)sc4cc32)c2ccccc21` (stereo unspecified), 105 to 107 °C.
In turn, `CCCc1ccc(NC(=O)c2ccccc2C(c2ccc(O)cc2)c2ccc(O)cc2)cc1` gave a melting point of 218 to 219 °C.
`COc1ccc(S(=O)(=O)C(CCCCCc2ccc(Cl)cc2)C(=O)O)cc1` (stereo unspecified) gave a melting point of 58 to 65 °C.
For `CCOc1nc(=O)n(C(=O)NC)s1` the value was 152 °C; for `COc1ccc(Cc2ccc(CO)nc2)cc1`, 55 to 58 °C.
`FC(F)(F)c1cccnc1OCc1ccnc2cc(Cl)ccc12` returned a melting point of 125 to 127 °C.
As to `Cc1ccccc1OS(=O)(=O)c1ccc(N2CCN(C)C2=O)cc1`, the melting point was 157 to 158 °C.
`CCOC(=O)N1CCN(c2nn(-c3ccc(F)cc3)c3ccccc23)CC1` came in with a melting point of 109 to 111 °C.
The figure for `COc1ccccc1OCC1(COc2ccccc2OC)NCCS1` is 86 to 88 °C.
For `CNC(=N[N+](=O)[O-])N(Cc1cnc(Cl)s1)C(=O)C(C)C` the value was 101 to 104 °C; for `CCOC(=O)Cc1ccc(-n2cccn2)cc1`, 49 °C.
`Cc1ccc2oc(C=Cc3ccc(C(=O)O)cc3)cc(=O)c2c1` showed a melting point of 308 to 312 °C.
As to `Cc1noc(NS(=O)(=O)c2ccccc2-c2ccc(-c3ncco3)cc2CN2OCC(C)(C)C2=O)c1C`, the melting point fell in the range of 95 to 100 °C.
With `CCN(C(=O)c1ccc(Cn2cnc3ccccc32)cc1)C1CCCCC1`, the melting point lay in the range of 118 to 119 °C.
The figure for `CCn1cc(C(=O)O)c(=O)c2cc(F)c(N3CCN(C(C)=O)CC3)cc21` is 300 °C; for `COc1cccc2c1OC(C)C2=O` (stereo unspecified) it is 60 to 61 °C; for `CSc1nc(N)nc2c1ncn2C1C=CC(CO)C1` (stereo unspecified) it is 152 to 154 °C.
The compound `CCOC(=O)Cn1ccc2ccc3c(c21)CCN(C(=O)OC(C)(C)C)CC3` displayed a melting point of 111 to 115 °C.
For `Cc1nc(N2CCC(CC3CC3)C2=O)sc1C(=O)NCc1ccc(F)cc1` (stereo unspecified) the value was 153 to 155 °C; for `O=S1(=O)N=CN(C2CC2)c2cc(Br)ccc21`, 268 to 271 °C; for `COc1cc2c(c(Cl)c1Cl)C(=O)C(C1CCCC1)C2` (stereo unspecified), 116 to 117 °C.
For `CCOP(=O)(OCC)C(O)[C@H](CC1CCCCC1)NC(=O)[C@H](CC(C)C)NC(=O)[C@H](Cc1ccccc1)NC(=O)OC(C)(C)C` (stereo partly specified) the value was 173 to 175 °C; for `CCCCCCCCCCCCCCCCNS(=O)(=O)c1ccc(Cl)c([N+](=O)[O-])c1`, 91 to 93 °C.
For `COc1cccc2sc(C3CCNC(C)C3)cc12` (stereo unspecified) the value was 70 to 73 °C; for `O=[N+]([O-])c1cnc2c(F)c(Cl)c(F)cc2c1`, 174 °C; for `COc1ccc(N2CCOCC2)c2sc(NC(=O)N3CC4CCC3CO4)nc12` (stereo unspecified), 164 to 170 °C.
Compound `O=S(=O)(c1ccccc1Cl)N1CCNc2ncc(I)cc21` yielded a melting point of 146 to 147 °C.
The figure for `CN(C)C=Cc1[nH]c(=O)ccc1C(=O)c1ccc(Br)cc1` is 265 to 268 °C.
Compound `C1=CCC2=C(C1)CCc1ccccc1C2CCN1CCCC1` (stereo unspecified) yielded a melting point of 57 to 58.5 °C.
For `COC[C@@H]1Cc2ccccc2N1S(=O)(=O)c1ccc2c(c1)C(=O)C1=NCC(C)(C)CN12`, the melting point lay in the range of 173 to 175 °C.
Compound `COc1c(Nc2ncc(Cl)c(Nc3ccccc3S(=O)(=O)N3CCCC3)n2)ccc2c1CCCC(NCCO)C2` (stereo unspecified) came in with a melting point of 79 to 82 °C.
In the case of `O=C(O)Cc1cc(Br)c(S(=O)(=O)c2ccc(O)c(I)c2)c(Br)c1`, the melting point fell in the range of 174 to 176 °C.
The figure for `COC(=O)c1cccc2nc(N)sc12` is 232 to 233 °C; for `Cc1cc2cc(C#CCO)ccc2o1` it is 102 °C.
The figure for `CCOC(=O)c1cn(CC)c2cc(-c3ccno3)ccc2c1=O` is 243 to 245 °C; for `COc1cc(-c2ccc(NC(=O)OC(C)(C)C)cc2)c(C(C)=NOCc2ccc([N+](=O)[O-])cc2)cc1O` it is 91 to 96.8 °C; for `O=c1[nH]c(=O)n(C2CC(OCc3cccc(Cl)c3)C(CO)O2)cc1F` (stereo unspecified) it is 153 to 155 °C.
The figure for `O=C(NC1CN2CCC1CC2)c1ccc2[nH]ccc2c1` (stereo unspecified) is 293 to 295 °C; for `C=C(C)Cn1c(=O)n(C)c(=O)c2cc(Cc3ccc(OC)cc3)sc21` it is 111 °C.
With `COc1cc(OC)nc(NC(=O)NS(=O)(=O)c2nccn2-c2ccccn2)n1`, the melting point was in the range of 146 to 149 °C.
For `COc1ccc(-c2cc(=Nc3c(C)cc(C)cc3C)n(C)c(C)n2)cc1OC` the value was 163 to 168 °C; for `O=Cc1cccc2ccc(F)cc12`, 95 to 96 °C.
The figure for `COc1ccc2cc(C#N)sc2c1` is 82 to 83 °C; for `O=C(O)CCCCNC(=O)c1ccc(Cl)cc1O` it is 140 to 141 °C; for `Cc1ccc(NCc2ccc(/C=C/C(=O)NO)cc2)cc1Nc1nccc(-c2cccnc2)n1` it is 201 to 205 °C.
For `COc1ccc(-c2sc3c(c2C)c(=O)c(CO)cn3Cc2ccccc2F)cc1` the value was 159 to 160 °C; for `CCC1CC2C3CC=C4CC(OC(C)=O)CCC4(C)C3CCC2(C)C1C(C)=O` (stereo unspecified), 115 °C; for `CCOC(=O)Cc1ccc2c(c1)CC(NC(C)=O)C2` (stereo unspecified), 82 to 84 °C.
`CN1c2ccc(-c3cccc4ccccc34)cc2Sc2cc(-c3cccc4ccccc34)ccc21`: the melting point lay within 185 to 190 °C.
For `Cc1cccc(NC(=O)NC2N=C(C(C)C)c3cccc(C)c3N(CC(=O)N3CCCCCCC3)C2=O)c1` (stereo unspecified) the value was 132 to 133 °C; for `COc1ccc(-c2[nH]nc3c2C(=O)c2c(NC(=O)Cc4cc(OC)ccc4OC)cccc2-3)cc1`, 226 °C.
`CC(C)(C)c1cc(C[C@@H]2N[C@@H](c3ccccc3)[C@@H](c3ccccc3)OC2=O)ccc1O` returned a melting point of 76 to 80 °C.
For the compound `Cc1ccc(C(=O)c2cc3cc(OCc4ccccc4)ccc3[nH]2)cc1`, the melting point is 199 to 200 °C.
For `Cc1cc(F)ccc1-c1ccc(S(=O)(=O)N2c3ccccc3CC2C(=O)NCc2ccccc2N)cc1` (stereo unspecified) the value was 92 to 96 °C; for `CCOC(=O)c1oc2cccc(OC)c2c1C`, 67 to 69 °C; for `O=C(O)CSc1cc(=Nc2ccccc2)ss1`, 147 °C.
Consider `CCOC(=O)C1=C(C)NC(=O)N(C(=O)OCC)C1c1ccccc1[N+](=O)[O-]` (stereo unspecified), for which the melting point fell in the range of 150 to 152 °C.
For `COc1ccc(C2=NN(C3CCN(C(=O)CCl)CC3)C(=O)[C@@H]3CC=CC[C@H]23)cc1OC` the value was 104 to 106 °C; for `CS(=O)c1ccc2nc(C(F)(F)F)nc(Cl)c2c1` (stereo unspecified), 105 to 107 °C; for `CCCCCCCCC(=O)N(C)Cc1ccc(C(=O)O)cc1`, 79.5 to 81 °C.
In turn, `CCOC(=O)N1CCc2c(sc3nc(-c4ccc(F)cc4)cn23)C1` yielded a melting point of 164 to 166 °C.
The compound `CCC1(CC(O)(CBr)c2ccccc2)C(=O)c2ccccc2C1=O` (stereo unspecified) displayed a melting point of 89 to 92 °C.
The figure for `CCCCCCCCC/C=C1\SC(=O)N(CC(=O)OC)C1=O` is 30 °C; for `CCCCc1cc2cc(OCC(=O)OCC)c(Cl)c(Cl)c2s1` it is 72 to 73 °C; for `COc1ccc(C)c(N2CCN(C(=O)Nc3cc4ccccc4nc3OC)CC2)c1` it is 128 to 130 °C.
For `Cc1cccc(C2SCCCS2)n1` the value was 74 °C; for `CC(=O)c1ccc(-c2ccc(O)c(F)c2)cc1`, 155 to 158 °C.
`CC(Cl)CCC(=O)Nc1c(C#N)cnn1-c1ccc(Cl)c(Cl)c1Cl` (stereo unspecified) displayed a melting point of 126 to 127 °C.
`CCNC(=O)C=CC(C)=CC=C(C)c1ccc2c(c1)C(C)(C)CCC2(C)C` had a melting point of 150 to 159 °C.
The figure for `O=C(CCSC(=O)c1ccccc1)N[C@@H](Cc1c[nH]cn1)C(=O)O` is 170 to 171 °C; for `CC(C)(C)c1ccc(C(=O)Nc2cn3nc(-n4cnc(Br)c4)ccc3n2)cc1` it is 306 to 307 °C; for `CCCCCCCCCCCN=C=S` it is 71 to 72 °C.
Compound `COC(=O)c1c(Cl)cc(Cl)cc1NC(=O)CSc1ccccc1C` came in with a melting point of 93 to 94 °C.
As for `CCOC(=O)c1c(N2CCN(C(=O)OCC)CC2)c2ccc(C)nc2n(CC)c1=O`, the melting point was 138 to 140 °C.
The compound `COc1cc(C=C(C)C(=O)O)ccc1O` came in with a melting point of 144 to 145 °C.
The figure for `CNC(=O)c1cc(C(=O)O)c(Nc2ccc(I)cc2C)c(F)c1F` is 254 to 259 °C; for `C=CCOc1ccc(C(=O)N[C@@H](C)c2cccc3ccccc23)cc1` it is 141 to 143 °C.
The figure for `COC1NC(=O)N(C2CCCCC2)C1=O` (stereo unspecified) is 135 to 137 °C; for `CC(C)(C)OC(=O)N1C(=O)CCC1c1ccc(F)cc1` (stereo unspecified) it is 117 °C.
For `COc1cc2c(=O)n3nc(C(=O)O)cc3n(C)c2cc1OC` the value was 284 to 285 °C.
Turning to `CNC(=O)C(Cc1ccc(OC)cc1)NC(=O)C(CC(C)C)C(CC(=O)NCC(=O)OC(C)(C)C)SC(C)=O` (stereo unspecified), the melting point was in the range of 192 to 194 °C.
In turn, `Cc1ccc(S(=O)(=O)C(CC#Cc2ccc(Cl)cc2)C(=O)O)cc1` (stereo unspecified) returned a melting point of 154 to 157 °C.
The figure for `CCn1ncc2c3onc(-c4cccc(OC)c4)c3cnc21` is 130 to 131 °C; for `Nc1nc2[nH]c3ccccc3c2c(=O)[nH]1` it is over 340 °C.
In turn, `C=CCn1c(=O)c2c(nc(/C=C/c3ccc(OC(C)=O)c(OC)c3)n2C)n(CC=C)c1=O` returned a melting point of 207 to 208 °C.

For the origin of these results see a melting point compilation (Tetko et al.; mined from patent text by program, amines drawn as free bases though some values may be those of a salt).
